# Measured values as given in patent publication US12479843B2, “Spiro ring-containing quinazoline compounds” (WIGEN BIOMEDICINE TECHNOLOGY (SHANGHAI) CO., LTD., priority 2019, dated 2025).
# pIC50: −log10 of the molar value.
# Test system: pERK level in H358 cells
# Test: pERK and ERK protein content assay in H358 cells (ELISA)
# Type: cell-based
# Details: Homo sapiens, NCI-H358, compound 1 μM, 24 h, pERK/ERK ratio compared with DMSO group, read-out: Inhibition rate (%) of pERK level
# Outline: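 Percent inhibition of pERK relative to DMSO, from the ELISA pERK/ERK ratio in lysed H358 cells. Compound applied at 1 μM for 24 h after one day of growth.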
row,SMILES,inhibition at 1 µM [%]
1,C=CC(=O)N1CC2(CCN(c3nc(OC4C5CCC4CS(=O)(=O)C5)nc4c(OCC(F)(F)F)c(-c5c(C)ccc6[nH]ncc56)c(C5CC5)cc34)CC2)C1 (stereo not drawn) [Compound 313],> 90
2,C=CC(=O)N1CC2(CCN(c3nc(N4CC5(CN(C)C5)C4)nc4c(OCC(F)(F)F)c(-c5c(C)ccc6[nH]ncc56)c(C5CC5)cc34)CC2)C1 [Compound 69],> 90
3,C=CC(=O)N1CC2(CCN(c3nc(OC[C@@H]4COCCN4C)nc4c(OCC(F)(F)F)c(-c5c(C)ccc6[nH]ncc56)c(C5CC5)cc34)CC2)C1 [Compound 115],50 to 90
4,C=CC(=O)N1CC2(CCN(c3nc(OC4CCN(CCOC)CC4)nc4c(OCC(F)(F)F)c(-c5c(C)ccc6[nH]ncc56)c(CC)cc34)CC2)C1 [Compound 14],> 90
5,C=CC(=O)N1CC2(CCN(c3nc(N4CC(N5CC(OCC)C5)C4)nc4c(OCC(F)(F)F)c(-c5c(C)ccc6[nH]ncc56)c(C5CC5)cc34)CC2)C1 [Compound 170],50 to 90
6,C=CC(=O)N1CC2(CCN(c3nc(N4CC5(CC(O)C5)C4)nc4c(OCC(F)(F)F)c(-c5c(C)ccc6[nH]ncc56)c(C5CC5)cc34)CC2)C1 [Compound 282],> 90
7,C=CC(=O)N1CC2(CCN(c3nc(OC4CC5(C4)CN(C4COC4)C5)nc4c(OCC(F)(F)F)c(-c5c(C)ccc6[nH]ncc56)c(C5CC5)cc34)CC2)C1 [Compound 127],> 90
8,C=C(F)C(=O)N1CC2(CCN(c3nc(N4CC5(CCN(CCOCC)CC5)C4)nc4c(OCC(F)(F)F)c(-c5c(C)ccc6[nH]ncc56)c(C5CC5)cc34)CC2)C1 [Compound 94],> 90
9,C=CC(=O)N1CC2(CCN(c3nc(N4CC5(CC(N6CC(C)C6)C5)C4)nc4c(OCC(F)(F)F)c(-c5c(C)ccc6[nH]ncc56)c(C5CC5)cc34)CC2)C1 [Compound 288],> 90
10,C=C(F)C(=O)N1CC2(CCN(c3nc(N4CCN(C5CCOCC5)CC4)nc4c(OCC(F)(F)F)c(-c5c(C)ccc6[nH]ncc56)c(C5CC5)cc34)CC2)C1 [Compound 155],50 to 90
11,C=C(F)C(=O)N1CC2(CCN(c3nc(N4CC5(CCN(C6COC6)CC5)C4)nc4c(OCC(F)(F)F)c(-c5c(C)ccc6[nH]ncc56)c(C5CC5)cc34)CC2)C1 [Compound 90],> 90
12,C=CC(=O)N1CC2(CCN(c3nc(OC4CC5CCC4N5CCOC)nc4c(OCC(F)(F)F)c(-c5c(C)ccc6[nH]ncc56)c(C5CC5)cc34)CC2)C1 (stereo not drawn) [Compound 309],> 90
13,C=CC(=O)N1CC2(CCN(c3nc(OC4CC5(C4)CN(C)C5)nc4c(OCC(F)(F)F)c(-c5c(C)ccc6[nH]ncc56)c(C5CC5)cc34)CC2)C1 [Compound 123],> 90
14,C=CC(=O)N1CC2(CCN(c3nc(N4CC[C@H](N5CCC(F)CC5)C4)nc4c(OCC(F)(F)F)c(-c5c(C)ccc6[nH]ncc56)c(C5CC5)cc34)CC2)C1 [Compound 211],> 90
15,C=CC(=O)N1CC2(CCN(c3nc(N4CC(N5CCC5)C4)nc4c(OCC(F)(F)F)c(-c5c(C)ccc6[nH]ncc56)c(C=C)cc34)CC2)C1 [Compound 336],> 90
16,C=CC(=O)N1CC2(CCN(c3nc(OC4CCN(CCOC)CC4)nc4c(OCC(F)(F)F)c(-c5cc(O)ccc5Cl)c(C5CC5)cc34)CC2)C1 [Compound 58],> 90
17,C=CC(=O)N1CC2(CCN(c3nc(N4CC[C@H](N5C6CCC5CC6)C4)nc4c(OCC(F)(F)F)c(-c5c(C)ccc6[nH]ncc56)c(C5CC5)cc34)CC2)C1 [Compound 302],> 90
18,C=CC(=O)N1CC2(CCN(c3nc(OC4CCS(=O)(=O)C5(CC5)C4)nc4c(OCC(F)(F)F)c(-c5c(C)ccc6[nH]ncc56)c(C5CC5)cc34)CC2)C1 (stereo not drawn) [Compound 310],50 to 90

# Test system: H358 cells
# Test: Antiproliferative activity against H358 cells (Cell Titer Glow, ultra-low attachment plate)
# Type: cell-based
# Details: Homo sapiens, NCI-H358, 72 h, 96-well ultra-low attachment plate, three days after addition of compound, Cell Titer Glow
# Protocol: 2500 H358 cells were seeded in a 96-well ultra-low attachment plate (corning, 7007). After one day of growth, a serially diluted compound (a maximum concentration of 5 μM, 5-fold dilution, a total of five doses) was added. Three days after the addition of the compound, Cell Titer Glow (Promega, G9681) was added to evaluate pellet growth, and the IC50 value was calculated.
row,SMILES,pIC50
1,C=CC(=O)N1CC2(CCN(c3nc(OC4C5CCC4CS(=O)(=O)C5)nc4c(OCC(F)(F)F)c(-c5c(C)ccc6[nH]ncc56)c(C5CC5)cc34)CC2)C1 (stereo not drawn) [Compound 313],> 6.52
2,C=CC(=O)N1CC2(CCN(c3nc(N4CC5(CN(C)C5)C4)nc4c(OCC(F)(F)F)c(-c5c(C)ccc6[nH]ncc56)c(C5CC5)cc34)CC2)C1 [Compound 69],> 6.52
3,C=CC(=O)N1CC2(CCN(c3nc(OC[C@@H]4COCCN4C)nc4c(OCC(F)(F)F)c(-c5c(C)ccc6[nH]ncc56)c(C5CC5)cc34)CC2)C1 [Compound 115],6.00 to 6.52
4,C=CC(=O)N1CC2(CCN(c3nc(N4CC5(CC(O)C5)C4)nc4c(OCC(F)(F)F)c(-c5c(C)ccc6[nH]ncc56)c(C5CC5)cc34)CC2)C1 [Compound 282],> 6.52
5,C=C(F)C(=O)N1CC2(CCN(c3nc(N4CCN(C5CCOCC5)CC4)nc4c(OCC(F)(F)F)c(-c5c(C)ccc6[nH]ncc56)c(C5CC5)cc34)CC2)C1 [Compound 155],6.00 to 6.52
6,C=CC(=O)N1CC2(CCN(c3nc(OC4CC5CCC4N5CCOC)nc4c(OCC(F)(F)F)c(-c5c(C)ccc6[nH]ncc56)c(C5CC5)cc34)CC2)C1 (stereo not drawn) [Compound 309],> 6.52
7,C=CC(=O)N1CC2(CCN(c3nc(OC4CC5(C4)CN(C)C5)nc4c(OCC(F)(F)F)c(-c5c(C)ccc6[nH]ncc56)c(C5CC5)cc34)CC2)C1 [Compound 123],> 6.52
8,C=CC(=O)N1CC2(CCN(c3nc(N4CC[C@H](N5CCC(F)CC5)C4)nc4c(OCC(F)(F)F)c(-c5c(C)ccc6[nH]ncc56)c(C5CC5)cc34)CC2)C1 [Compound 211],> 6.52
9,C=CC(=O)N1CC2(CCN(c3nc(N4CC(N5CCC5)C4)nc4c(OCC(F)(F)F)c(-c5c(C)ccc6[nH]ncc56)c(C=C)cc34)CC2)C1 [Compound 336],> 6.52
10,C=CC(=O)N1CC2(CCN(c3nc(N4CC[C@H](N5C6CCC5CC6)C4)nc4c(OCC(F)(F)F)c(-c5c(C)ccc6[nH]ncc56)c(C5CC5)cc34)CC2)C1 [Compound 302],> 6.52

# Further lines, results first:
row,pIC50,SMILES
1,6.00 to 6.52,C=CC(=O)N1CC2(CCN(c3nc(OC4CCN(CCOC)CC4)nc4c(OCC(F)(F)F)c(-c5c(C)ccc6[nH]ncc56)c(CC)cc34)CC2)C1 [Compound 14]
2,6.00 to 6.52,C=CC(=O)N1CC2(CCN(c3nc(N4CC(N5CC(OCC)C5)C4)nc4c(OCC(F)(F)F)c(-c5c(C)ccc6[nH]ncc56)c(C5CC5)cc34)CC2)C1 [Compound 170]
3,> 6.52,C=CC(=O)N1CC2(CCN(c3nc(OC4CC5(C4)CN(C4COC4)C5)nc4c(OCC(F)(F)F)c(-c5c(C)ccc6[nH]ncc56)c(C5CC5)cc34)CC2)C1 [Compound 127]
4,> 6.52,C=C(F)C(=O)N1CC2(CCN(c3nc(N4CC5(CCN(CCOCC)CC5)C4)nc4c(OCC(F)(F)F)c(-c5c(C)ccc6[nH]ncc56)c(C5CC5)cc34)CC2)C1 [Compound 94]
5,> 6.52,C=CC(=O)N1CC2(CCN(c3nc(N4CC5(CC(N6CC(C)C6)C5)C4)nc4c(OCC(F)(F)F)c(-c5c(C)ccc6[nH]ncc56)c(C5CC5)cc34)CC2)C1 [Compound 288]
6,> 6.52,C=C(F)C(=O)N1CC2(CCN(c3nc(N4CC5(CCN(C6COC6)CC5)C4)nc4c(OCC(F)(F)F)c(-c5c(C)ccc6[nH]ncc56)c(C5CC5)cc34)CC2)C1 [Compound 90]
7,> 6.52,C=CC(=O)N1CC2(CCN(c3nc(OC4CCN(CCOC)CC4)nc4c(OCC(F)(F)F)c(-c5cc(O)ccc5Cl)c(C5CC5)cc34)CC2)C1 [Compound 58]
8,6.00 to 6.52,C=CC(=O)N1CC2(CCN(c3nc(OC4CCS(=O)(=O)C5(CC5)C4)nc4c(OCC(F)(F)F)c(-c5c(C)ccc6[nH]ncc56)c(C5CC5)cc34)CC2)C1 (stereo not drawn) [Compound 310]
